Laboratory results taken from patent US20070264241A1, “Compounds for Enhanced Cancer Therapy” (priority 2004, published 2007).
pIC50: −log10 of the molar value. Entries after “also recorded” stand apart in the source; their conditions may differ.

Columns and labels:
[1] = test system: Cx43 in human neural stem cells (HNSC.100); experiment: Western blot analysis for Cx43 in neural stem cells; type: cell-based; details: 0.5 mM 4-PB, up to 4 days
Experimental: Human neural stem cells (HNSC.100 cells, Villa et al Exp Neurol, 2000, 161(1):67-84) were obtained from Alberto Martinez Serrano, Department of Molecular Biology, Center of Molecular Biology Severo Ochoa, Autonomous University of Madrid-CSIC, Campus Cantoblanco, Madrid, 28049, Spain. Neural stem cells were grown to around 50% confluence and then 0.5 mM 4-PB treatment was started and continued for 4 days. Medium was replaced every 2nd day with fresh drug. Whole-cell lysates from three 100 mm petri dishes were solubilized in 100 μl of lysis buffer containing 250 mM Tris-HCl (pH 8.5), 2% SDS, 10% glycerol, 0.05 mM PMSF and protease inhibitor cocktail (Roche). Protein concentrations were quantified using the micro BSA protein assay kit (Pierce). Cell lysates were further mixed with loading buffer containing 1% β-mercaptoethanol, 0.02% bromophenol blue, and 0.1 M DTT. […] For quantification, films were scanned and analyzed with Image Gauge (Version 3.12, Fuji Photo Film Corp.). All results are expressed as means ± SE for the indicated number of experiments (FIG. 13). […] As the bands of protein became visible, the membranes were washed several times and total amount of loaded protein was quantified using computerized densitometric analysis.

[2] = test system: gap junction communication between HNSC100 neural stem cells and glioblastoma cells; experiment: Fluorescent dye transfer between neural stem cells and glioma cells; type: cell-based, human; details: pre-treatment 48 hours with 4-PB, 0.5 mM (stem cells) and 2 mM (glioblastoma cells)
Experimental: Donor human neural stem cells (1×10^5 HNSC100) and recipient human glioblastoma cells (1×10^5 U343MGa) cells were plated each in 4 separate 35 mm petri dishes. […] Donor cells were incubated with 10 μM Dil (a fluorescent lipophilic carbocyanine tracer; Molecular Probes) and 5 μM Calcein-AM (an acetoxymethyl ester derivative; Molecular Probes) for 20 min in complete medium. Cells were washed three times with culture medium and twice with PBS to remove free dye. After trypsinization, cells were pelleted by centrifugation and resuspended in co-culture medium. Donor cells 50% confluent were added to the plate of recipient cells. AGA treatment, when performed, was always continued throughout the experiment. Assessment of functional GJC by Calcein dye transfer from donor to recipient cells was carried out after 4 hours using an Olympus BX50WI microscope.

[3] = test system: U87MG cells; experiment: XTT cytotoxicity assay of phenylbutyrate and of nucleoside analogues with or without phenylbutyrate pre-incubation; type: cell-based, human; details: 4-phenylbutyrate cytotoxicity assay, incubation 24 hours; read-out: IC50 U87MG (phenylbutyrate alone)
Experimental: Briefly, cells were harvested by trypsinzation, stained by Tryphan Blue for cell viability counting, seeded in triplicate in 96-well plates (1.000-2.000 cells/well) where after media conditioned with a fixed concentration of phenyl butyrate (3.16 mM) were added to the plates followed by incubation for 24 hours at 37° C. and 5% CO2. Cell proliferation/cytotoxicity was assessed by adding the colour generating substrates of the Cell Proliferation kit II (XTT) from Roche (Cat. No. 1465015) and measuring absorbance at 450 nm and 690 nm with a Thermo Labsystems Multiscan Ascent reader.
(§1) Cells were seeded at a density of 1.000-2.000 cells/well in 96-well plates. Cells were pre-incubated with 4-phenyl butyrate for 24 hours prior to drug exposure by adding media conditioned with phenyl butyrate at a fixed concentration (3.16 mM). Plated incubated for 24 hours (37° C., 5% CO2) where after media was discarded and replaced by media conditioned with various concentrations of nucleoside analogs (e.g. AZT), 200 μl/well. After 120 hours of drug exposure the experiments were terminated. Cell proliferation/cytotoxicity was assessed by adding the colour generating substrates of the Cell Proliferation kit II (XTT) from Roche (Cat. No. 1465015) and measuring absorbance at 450 nm and 690 nm with a Thermo Labsystems Multiscan Ascent reader.
The data was corrected for background media-only absorbance where after the 50% growth inhibitory concentration—IC50 (the dose that inhibits cell growth by 50%) was calculated for each treatment.
Briefly, cells were harvested by trypsinzation, stained by Tryphan Blue (Cambrex) for cell viability counting, seeded in triplicate in poly-L-lysine (PLL) (Sigma # P6282) coated 96-well plates (1.000-2.000 cells/well) where after media conditioned with a fixed concentration of phenyl butyrate (3.16 mM) was added to the plates followed by incubation for 24 hours at 37° C. and 5% CO2. Cell proliferation/cytotoxicity was assessed by adding the colour generating substrates of the
as §1, with “cells/well in PLL coated 96-well plates.” for “cells/well in 96-well plates.”, “of nucleoside analogs; AZT (Sigma # A2169), AraC (Sigma # C6645), Cladribine (CdA) (Sigma #C4438), Gancidovir (GCV) (Sigma # G2536) and Gemcitabine (Orifarm), 200 μl/well.” for “of nucleoside analogs (e.g. AZT), 200 μl/well.”, “Ascent reader. he data was corrected for background media-only absorbance where after the 50% growth inhibitory concentration—IC50 (the dose that inhibits cell growth by 50%) was calculated for ach treatment.” for “Ascent reader.”

[4] = test system: U87MG/tomato kinase positive cells; experiment: Synergistic cell killing effect of AZT and 4-PB; type: cell-based, human; details: 72 hours
Experimental: Medium was replaced by 300 μL of MTT solution (0.5mg/mL; Sigma # M 2128) per well and incubated at 37° C. for 30 minutes. The MTT solution was aspirated and 350 μL of isopropranol was added to dissolve the formazan product by gentle shaking. Three 100 μL aliquots of formazan solution from each well were pipetted into a 96-well microplate. Optical density was measured by Multiscan RMCC/340 plate reader (MicroELISA Reader) at 570 nm with reference at 650 nm. The results were expressed as percentage of live cells compared to control untreated cells (100%). The analyses were run as three independent experiments.

With 4-phenylbutyrate [4-PB] the “level of Cx43 protein (Western blot)” value [1] was “increased; also recorded: upregulated”, the “dye transfer from neural stem cells to glioblastoma cells” value [2] was “can induce such gap junction communication; also recorded: substantially enhanced” and the pIC50 [3] was 2.38. The “combination effect on cell killing” value ([4]; 15 μM AZT and 0.5 mM 4-PB) was “clear additive or synergistic effects” and the “effect of 4-PB on cell killing by AZT” value ([4]; 15 μM AZT, 4-PB 0.5-8 mM) was “enhanced the effects of AZT”.
